Measured values as given in ChEMBL document CHEMBL4024727, “Synthesis and antimycobacterial screening of new thiazolyl-oxazole derivatives” (Eur J Med Chem, 2017).
Converted amounts (≈) assume the structure as drawn.

Test system: Mycobacterium tuberculosis
Test: Antitubercular activity against Mycobacterium bovis BCG ATCC 35743 dormant stage by nitrate reductase based two-fold dilution assay
Format: functional
Conditions: BCG str. ATCC 35743
Compound Cc1nc(-c2ccc(F)cc2)oc1-c1csc(Cc2cccc(Cl)c2)n1 has an IC50 of 360 nM and an MIC90 of 6.26 µM (≈ 2.41 µg/mL).

Test system: Mycobacterium tuberculosis
Test: Growth inhibition of Mycobacterium bovis BCG ATCC 35743 at 10 ug/ml by nitrate reductase based two-fold dilution assay relative to control
Format: functional
Conditions: BCG str. ATCC 35743, read-out: GI
Compound Cc1nc(-c2ccc(F)cc2)oc1-c1csc(Cc2cccc(Cl)c2)n1 has an inhibition of growth at 10 µg/mL of 95%.

Test system: HeLa
Test: (§1) Growth inhibition of human HeLa cells by MTT assay
Format: cell-based
Conditions: hela
In the case of Cc1nc(-c2ccc(F)cc2)oc1-c1csc(Cc2cccc(Cl)c2)n1, the GI90 is reported as greater than 250 µg/mL.

Test system: not listed separately
Test: as §1
Format: cell-based
Conditions: HeLa cells
Compound Cc1nc(-c2ccc(F)cc2)oc1-c1csc(Cc2cccc(Cl)c2)n1 has a GI50 of 168 µg/mL (≈ 436 µM).

Test system: not listed separately
Test: Selectivity index, ratio of GI50 for human HeLa cells to MIC for Mycobacterium bovis BCG ATCC 35743 dormant stage
Format: toxicity, cell-based
Conditions: read-out: Selectivity Index
Work on Cc1nc(-c2ccc(F)cc2)oc1-c1csc(Cc2cccc(Cl)c2)n1 yielded a selectivity ratio of 70.

Test system: Mycobacterium tuberculosis
Test: Growth inhibition of Mycobacterium bovis BCG ATCC 35743 at 1 ug/ml by nitrate reductase based two-fold dilution assay relative to control
Format: functional
Conditions: BCG str. ATCC 35743, read-out: GI
For Cc1nc(-c2ccc(F)cc2)oc1-c1csc(Cc2cccc(Cl)c2)n1, the inhibition of growth at 1 µg/mL was 98%.

Test system: Escherichia coli
Test: Growth inhibition of Escherichia coli NCIM 2576 at 1 ug/ml measured after 8 hrs relative to control
Format: functional
Conditions: NCIM 2576, 8 h, read-out: GI
With Cc1nc(-c2ccc(F)cc2)oc1-c1csc(Cc2cccc(Cl)c2)n1 the inhibition of growth at 1 µg/mL was 70.5%.

Test system: Escherichia coli
Test: Growth inhibition of Escherichia coli NCIM 2576 at 10 ug/ml measured after 8 hrs relative to control
Format: functional
Conditions: NCIM 2576, 8 h, read-out: GI
Compound Cc1nc(-c2ccc(F)cc2)oc1-c1csc(Cc2cccc(Cl)c2)n1 has an inhibition of growth at 10 µg/mL of 86.1%.

Test system: not listed separately
Test: Selectivity index, ratio of GI50 for human HeLa cells to MIC for Mycobacterium tuberculosis H37Ra ATCC 25177 dormant stage
Format: toxicity, cell-based
Conditions: read-out: Selectivity Index
In the case of Cc1nc(-c2ccc(F)cc2)oc1-c1csc(Cc2cccc(Cl)c2)n1, the selectivity ratio is reported as 59.

Test system: Mycobacterium tuberculosis
Test: Growth inhibition of Mycobacterium tuberculosis H37Ra ATCC 25177 at 3 ug/ml by XTT dye based two-fold dilution method relative to control
Format: functional
Conditions: read-out: GI
Cc1nc(-c2ccc(F)cc2)oc1-c1csc(Cc2cccc(Cl)c2)n1 showed an inhibition of growth at 3 µg/mL of 93%.

Test system: not listed separately
Test: Selectivity index, ratio of GI50 for human A549 cells to MIC for Mycobacterium bovis BCG ATCC 35743 dormant stage
Format: toxicity
Conditions: read-out: Selectivity Index
With Cc1nc(-c2ccc(F)cc2)oc1-c1csc(Cc2cccc(Cl)c2)n1 the selectivity ratio was 104.

Test system: not listed separately
Test: Selectivity index, ratio of GI50 for human PANC1 cells to MIC for Mycobacterium tuberculosis H37Ra ATCC 25177 dormant stage
Format: toxicity
Conditions: PANC-1 cells, read-out: Selectivity Index
In the case of Cc1nc(-c2ccc(F)cc2)oc1-c1csc(Cc2cccc(Cl)c2)n1, the selectivity ratio is reported as 88.

Test system: Pseudomonas fluorescens
Test: Antibacterial activity against Pseudomonas fluorescens NCIM 2059 measured after 8 hrs
Format: functional
Conditions: NCIM 2059, 8 h
In the case of Cc1nc(-c2ccc(F)cc2)oc1-c1csc(Cc2cccc(Cl)c2)n1, the MIC is reported as 57.4 µM (≈ 22.1 µg/mL).

Test system: Mycobacterium tuberculosis
Test: Growth inhibition of Mycobacterium bovis BCG ATCC 35743 at 30 ug/ml by nitrate reductase based two-fold dilution assay relative to control
Format: functional
Conditions: BCG str. ATCC 35743, read-out: GI
Cc1nc(-c2ccc(F)cc2)oc1-c1csc(Cc2cccc(Cl)c2)n1 showed an inhibition of growth at 30 µg/mL of 97%.

Test system: Bacillus subtilis
Test: Growth inhibition of Bacillus subtilis NCIM 2162 at 30 ug/ml measured after 12 hrs relative to control
Format: functional
Conditions: NCIM 2162, 12 h, read-out: GI
Work on Cc1nc(-c2ccc(F)cc2)oc1-c1csc(Cc2cccc(Cl)c2)n1 yielded an inhibition of growth at 30 µg/mL of 93.7%.

Test system: not listed separately
Test: Selectivity index, ratio of GI50 for human A549 cells to MIC for Mycobacterium tuberculosis H37Ra ATCC 25177 dormant stage
Format: toxicity
Conditions: read-out: Selectivity Index
Compound Cc1nc(-c2ccc(F)cc2)oc1-c1csc(Cc2cccc(Cl)c2)n1 has a selectivity ratio of 88.

Test system: Staphylococcus aureus
Test: Growth inhibition of Staphylococcus aureus NCIM 2602 at 30 ug/ml measured after 12 hrs relative to control
Format: functional
Conditions: NCIM 2602, 12 h, read-out: GI
In the case of Cc1nc(-c2ccc(F)cc2)oc1-c1csc(Cc2cccc(Cl)c2)n1, the inhibition of growth at 30 µg/mL is reported as 95.6%.

Test system: Bacillus subtilis
Test: Growth inhibition of Bacillus subtilis NCIM 2162 at 10 ug/ml measured after 12 hrs relative to control
Format: functional
Conditions: NCIM 2162, 12 h, read-out: GI
Compound Cc1nc(-c2ccc(F)cc2)oc1-c1csc(Cc2cccc(Cl)c2)n1 has an inhibition of growth at 10 µg/mL of 85.4%.

Test system: Bacillus subtilis
Test: Growth inhibition of Bacillus subtilis NCIM 2162 at 1 ug/ml measured after 12 hrs relative to control
Format: functional
Conditions: NCIM 2162, 12 h, read-out: GI
Cc1nc(-c2ccc(F)cc2)oc1-c1csc(Cc2cccc(Cl)c2)n1 gave an inhibition of growth at 1 µg/mL of 79.7%.

Test system: Escherichia coli
Test: Antibacterial activity against Escherichia coli NCIM 2576 measured after 8 hrs
Format: functional
Conditions: NCIM 2576, 8 h
Cc1nc(-c2ccc(F)cc2)oc1-c1csc(Cc2cccc(Cl)c2)n1 showed an MIC of 69.6 µM (≈ 26.8 µg/mL).

Test system: Mycobacterium tuberculosis
Test: Antitubercular activity against Mycobacterium tuberculosis H37Ra ATCC 25177 dormant stage by XTT dye based two-fold dilution method
Format: functional
Conditions: not given
Compound Cc1nc(-c2ccc(F)cc2)oc1-c1csc(Cc2cccc(Cl)c2)n1 has an IC50 of 230 nM and an MIC90 of 7.38 µM (≈ 2.84 µg/mL).

Test system: Pseudomonas fluorescens
Test: Growth inhibition of Pseudomonas fluorescens NCIM 2059 at 30 ug/ml measured after 8 hrs relative to control
Format: functional
Conditions: NCIM 2059, 8 h, read-out: GI
Compound Cc1nc(-c2ccc(F)cc2)oc1-c1csc(Cc2cccc(Cl)c2)n1 has an inhibition of growth at 30 µg/mL of 93.3%.

Test system: not listed separately
Test: (§2) Growth inhibition of human A549 cells by MTT assay
Format: cell-based
Conditions: A549 cells
Compound Cc1nc(-c2ccc(F)cc2)oc1-c1csc(Cc2cccc(Cl)c2)n1 has a GI50 greater than 250 µg/mL.

Test system: A549
Test: as §2
Format: cell-based
Conditions: a549
Cc1nc(-c2ccc(F)cc2)oc1-c1csc(Cc2cccc(Cl)c2)n1 gave a GI90 greater than 250 µg/mL.

Test system: Staphylococcus aureus
Test: Antibacterial activity against Staphylococcus aureus NCIM 2602 measured after 12 hrs
Format: functional
Conditions: NCIM 2602, 12 h
With Cc1nc(-c2ccc(F)cc2)oc1-c1csc(Cc2cccc(Cl)c2)n1 the MIC was 55.6 µM (≈ 21.4 µg/mL).

Test system: PANC-1
Test: (§3) Growth inhibition of human PANC1 cells by MTT assay
Format: cell-based
Conditions: panc-1
For Cc1nc(-c2ccc(F)cc2)oc1-c1csc(Cc2cccc(Cl)c2)n1, the GI90 was greater than 250 µg/mL.

Test system: not listed separately
Test: as §3
Format: cell-based, PANC-1
Conditions: PANC-1 cells
Work on Cc1nc(-c2ccc(F)cc2)oc1-c1csc(Cc2cccc(Cl)c2)n1 yielded a GI50 greater than 250 µg/mL.

Test system: Mycobacterium tuberculosis
Test: Growth inhibition of Mycobacterium tuberculosis H37Ra ATCC 25177 at 10 ug/ml by XTT dye based two-fold dilution method relative to control
Format: functional
Conditions: read-out: GI
For Cc1nc(-c2ccc(F)cc2)oc1-c1csc(Cc2cccc(Cl)c2)n1, the inhibition of growth at 10 µg/mL was 92%.

Test system: Pseudomonas fluorescens
Test: Growth inhibition of Pseudomonas fluorescens NCIM 2059 at 10 ug/ml measured after 8 hrs relative to control
Format: functional
Conditions: NCIM 2059, 8 h, read-out: GI
For Cc1nc(-c2ccc(F)cc2)oc1-c1csc(Cc2cccc(Cl)c2)n1, the inhibition of growth at 10 µg/mL was 85.7%.

Test system: Staphylococcus aureus
Test: Growth inhibition of Staphylococcus aureus NCIM 2602 at 1 ug/ml measured after 12 hrs relative to control
Format: functional
Conditions: NCIM 2602, 12 h, read-out: GI
With Cc1nc(-c2ccc(F)cc2)oc1-c1csc(Cc2cccc(Cl)c2)n1 the inhibition of growth at 1 µg/mL was 71.7%.

Test system: Escherichia coli
Test: Growth inhibition of Escherichia coli NCIM 2576 at 30 ug/ml measured after 8 hrs relative to control
Format: functional
Conditions: NCIM 2576, 8 h, read-out: GI
With Cc1nc(-c2ccc(F)cc2)oc1-c1csc(Cc2cccc(Cl)c2)n1 the inhibition of growth at 30 µg/mL was 91.2%.

Test system: Staphylococcus aureus
Test: Growth inhibition of Staphylococcus aureus NCIM 2602 at 10 ug/ml measured after 12 hrs relative to control
Format: functional
Conditions: NCIM 2602, 12 h, read-out: GI
For Cc1nc(-c2ccc(F)cc2)oc1-c1csc(Cc2cccc(Cl)c2)n1, the inhibition of growth at 10 µg/mL was 82.4%.

Test system: Pseudomonas fluorescens
Test: Growth inhibition of Pseudomonas fluorescens NCIM 2059 at 1 ug/ml measured after 8 hrs relative to control
Format: functional
Conditions: NCIM 2059, 8 h, read-out: GI
For Cc1nc(-c2ccc(F)cc2)oc1-c1csc(Cc2cccc(Cl)c2)n1, the inhibition of growth at 1 µg/mL was 72.5%.

Test system: Bacillus subtilis
Test: Antibacterial activity against Bacillus subtilis NCIM 2162 measured after 12 hrs
Format: functional
Conditions: NCIM 2162, 12 h
In the case of Cc1nc(-c2ccc(F)cc2)oc1-c1csc(Cc2cccc(Cl)c2)n1, the MIC is reported as 53.8 µM (≈ 20.7 µg/mL).

Test system: Mycobacterium tuberculosis
Test: Growth inhibition of Mycobacterium tuberculosis H37Ra ATCC 25177 at 30 ug/ml by XTT dye based two-fold dilution method relative to control
Format: functional
Conditions: read-out: GI
Compound Cc1nc(-c2ccc(F)cc2)oc1-c1csc(Cc2cccc(Cl)c2)n1 has an inhibition of growth at 30 µg/mL of 96%.

Test system: not listed separately
Test: Selectivity index, ratio of GI50 for human PANC1 cells to MIC for Mycobacterium bovis BCG ATCC 35743 dormant stage
Format: toxicity
Conditions: PANC-1 cells, read-out: Selectivity Index
With Cc1nc(-c2ccc(F)cc2)oc1-c1csc(Cc2cccc(Cl)c2)n1 the selectivity ratio was 104.
